Structures are written as SMILES. Read-outs that look alike come from different tables or passages of the source. A value given as a limit tells only on which side of the number the result lay.

The experiment deals with T1, TPM3-TRKA fusion protein (Homo sapiens, UniProt P04629).
T1 construct: The resulted chimeric proteins always retain the kinase domain of TRK proteins; TPM3 (fusion partner, N-terminal part of tropomyosin alpha-3, P06753); endogenous in cells; host or cells: KM12 colon cancer cells; the other entry of the earlier key: TPM3 (P06753, Tropomyosin alpha-3 chain)
In words: TPM3-TRKA fusion protein levels in KM12 cells (Western blot). As to conditions: read-out: Degradation (at 10 nM). The format is cell-based. The essentials:
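TPM3-TRKA levels were assessed by Western blot with chemiluminescent detection and band densitometry, after SDS-PAGE of BCA-normalized RIPA lysates. Before lysis, KM12 cells received DMSO, compounds or matched control compounds at concentrations including 0.1, 1, 10 and 100 nM and 0.4–30 nM. Exposures lasted 4 h, 8–16 h or 16 h.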
Background: In western blotting, separated proteins are transferred to a membrane and probed.

Where [1] appears, read: 16 h, TPM3-TRKA degradation in KM12 cells at 10 nM compound, category of percentage degradation.

T1 sequence (P04629 with tags, fused parts or gaps): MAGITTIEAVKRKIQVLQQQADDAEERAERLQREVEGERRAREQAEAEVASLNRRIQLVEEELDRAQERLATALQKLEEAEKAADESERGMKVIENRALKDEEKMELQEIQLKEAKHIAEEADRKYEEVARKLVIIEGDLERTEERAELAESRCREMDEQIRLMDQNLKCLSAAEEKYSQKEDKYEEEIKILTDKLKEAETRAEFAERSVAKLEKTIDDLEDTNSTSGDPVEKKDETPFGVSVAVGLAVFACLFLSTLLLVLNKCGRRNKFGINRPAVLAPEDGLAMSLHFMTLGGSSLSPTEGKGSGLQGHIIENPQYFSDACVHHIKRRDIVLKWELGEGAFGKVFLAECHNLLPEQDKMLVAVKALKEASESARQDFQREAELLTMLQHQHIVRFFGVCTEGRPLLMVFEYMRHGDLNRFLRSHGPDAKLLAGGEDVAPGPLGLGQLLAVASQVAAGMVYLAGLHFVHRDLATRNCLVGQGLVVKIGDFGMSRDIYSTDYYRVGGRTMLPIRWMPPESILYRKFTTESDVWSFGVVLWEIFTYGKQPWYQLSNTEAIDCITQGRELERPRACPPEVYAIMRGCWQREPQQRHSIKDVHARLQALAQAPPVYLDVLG

As to `O=C1CCC(N2Cc3cc(NCCN4CCN(c5cccc(-c6cnc7ccc(N8CCC[C@@H]8c8cccc(F)c8)nn67)n5)CC4)ccc3C2=O)C(=O)N1` (stereo partly drawn) [TR-191, 3-(5-((2-(4-(6-(6-((R)-2-(3-fluorophenyl)pyrrolidin-1-yl)imidazo[1,2-b]pyridazin-3-yl)pyridin-2-yl)piperazin-1-yl)ethyl)amino)-1-oxoisoindolin-2-yl)piperidine-2,6-dione], under setting [1], the percent degradation of TPM3-TRKA protein at 0.01 µM is greater than 80%.
Consider `O=C1CCC(N2Cc3ccc(NCCN4CCN(c5cccc(-c6cnc7ccc(N8CCC[C@@H]8c8cccc(F)c8)nn67)n5)CC4)cc3C2=O)C(=O)N1` (stereo partly drawn) [TR-196, 3-(6-((2-(4-(6-(6-((R)-2-(3-fluorophenyl)pyrrolidin-1-yl)imidazo[1,2-b]pyridazin-3-yl)pyridin-2-yl)piperazin-1-yl)ethyl)amino)-1-oxoisoindolin-2-yl)piperidine-2,6-dione], for which the percent degradation of TPM3-TRKA protein at 0.01 µM under setting [1] is 50 to 80%.
Still for that read-out and setting: with `O=C1CCC(N2Cc3ccc(C#CC(=O)N4CCN(c5cccc(-c6cnc7ccc(N8CCC[C@@H]8c8cccc(F)c8)nn67)n5)CC4)cc3C2=O)C(=O)N1` (stereo partly drawn) [TR-202, 3-(6-(3-(4-(6-(6-((R)-2-(3-Fluorophenyl)pyrrolidin-1-yl)imidazo[1,2-b]pyridazin-3-yl)pyridin-2-yl)piperazin-1-yl)-3-oxoprop-1-yn-1-yl)-1-oxoisoindolin-2-yl)piperidine-2,6-dione] the figure was 50 to 80%; with `O=C1CCC(N2Cc3cc(C#CC(=O)N4CCN(c5cccc(-c6cnc7ccc(N8CCC[C@@H]8c8cccc(F)c8)nn67)n5)CC4)ccc3C2=O)C(=O)N1` (stereo partly drawn) [TR-203, 3-(5-(3-(4-(6-(6-((R)-2-(3-fluorophenyl)pyrrolidin-1-yl)imidazo[1,2-b]pyridazin-3-yl)pyridin-2-yl)piperazin-1-yl)-3-oxoprop-1-yn-1-yl)-1-oxoisoindolin-2-yl)piperidine-2,6-dione], 50 to 80%.
Same read-out and setting: to `O=C1CCC(N2C(=O)c3ccc(CCN4CCN(c5cccc(-c6cnc7ccc(N8CCC[C@@H]8c8cccc(F)c8)nn67)n5)CC4)cc3C2=O)C(=O)N1` (stereo partly drawn) [TR-204, 2-(2,6-dioxopiperidin-3-yl)-5-(2-(4-(6-(6-((R)-2-(3-fluorophenyl)pyrrolidin-1-yl)imidazo[1,2-6]pyridazin-3-yl)pyridin-2-yl)piperazin-1-yl)ethyl)isoindoline-1,3-dione] belongs greater than 80%; to `O=C1CCC(N2Cc3cc(C#CC4CCN(c5cccc(-c6cnc7ccc(N8CCC[C@@H]8c8cccc(F)c8)nn67)n5)CC4)ccc3C2=O)C(=O)N1` (stereo partly drawn) [TR-208, 3-(5-((1-(6-(6-((R)-2-(3-fluorophenyl)pyrrolidin-1-yl)imidazo[1,2-b]pyridazin-3-yl)pyridin-2-yl)piperidin-4-yl)ethynyl)-1-oxoisoindolin-2-yl)piperidine-2,6-dione], 50 to 80%; to `O=C1CCC(N2Cc3cc(NCC4CN(c5cccc(-c6cnc7ccc(N8CCC[C@@H]8c8cccc(F)c8)nn67)n5)C4)ccc3C2=O)C(=O)N1` (stereo partly drawn) [TR-210, 3-(5-(((1-(6-(6-((R)-2-(3-Fluorophenyl)pyrrolidin-1-yl)imidazo[1,2-b]pyridazin-3-yl)pyridin-2-yl)azetidin-3-yl)methyl)amino)-1-oxoisoindolin-2-yl)piperidine-2,6-dione], 50 to 80%.
Still for that read-out and setting: to `COc1ccc(CN(CCN2CCN(c3cccc(-c4cnc5ccc(N6CCC[C@@H]6c6cccc(F)c6)nn45)n3)CC2)c2ccc3c(c2)C(=O)N(C2CCC(=O)NC2=O)C3=O)cc1` (stereo partly drawn) [TR-214, 2-(2,6-Dioxo-3-piperidyl)-5-(2-(4-(6-(6-((2R)-2-(3-fluorophenyl)pyrrolidin-1-yl)imidazo[1,2-b]pyridazin-3-yl)-2-pyridyl)piperazin-1-yl)ethyl-((4-methoxyphenyl)methyl)amino) isoindoline-1,3-dione] belongs less than 50%; to `Cn1c(=O)n(C2CCC(=O)NC2=O)c2cccc(NCCN3CCN(c4cccc(-c5cnc6ccc(N7CCC[C@@H]7c7cccc(F)c7)nn56)n4)CC3)c21` (stereo partly drawn) [TR-216, 3-[4-[2-[4-[6-[6-[(2R)-2-(3-Fluorophenyl)pyrrolidin-1-yl]imidazo[1,2-b]pyridazin-3-yl]-2-pyridyl]piperazin-1-yl]ethylamino]-3-methyl-2-oxo-benzimidazol-1-yl]piperidine-2,6-dione], greater than 80%; to `Cn1c(=O)n(C2CCC(=O)NC2=O)c2cccc(NCCCN3CCN(c4cccc(-c5cnc6ccc(N7CCC[C@@H]7c7cccc(F)c7)nn56)n4)CC3)c21` (stereo partly drawn) [TR-217, 3-[4-[3-[4-[6-[6-[(2R)-2-(3-Fluorophenyl)pyrrolidin-1-yl]imidazo[1,2-b]pyridazin-3-yl]-2-pyridyl]piperazin-1-yl]propylamino]-3-methyl-2-oxo-benzimidazol-1-yl]piperidine-2,6-dione], greater than 80%.
As for `O=C1CCC(N2Cc3cc(NCC4CCN(c5cccc(-c6cnc7ccc(N8CCC[C@@H]8c8cccc(F)c8)nn67)n5)CC4)ccc3C2=O)C(=O)N1` (stereo partly drawn) [TR-218, 3-(5-(((1-(6-(6-((R)-2-(3-fluorophenyl)pyrrolidin-1-yl)imidazo[1,2-b]pyridazin-3-yl)pyridin-2-yl)piperidin-4-yl)methyl)amino)-1-oxoisoindolin-2-yl)piperidine-2,6-dione], under setting [1], the percent degradation of TPM3-TRKA protein at 0.01 µM fell in the range of 50 to 80%.
In the case of `O=C1CCC(N2Cc3cc(C#CC4CN(c5cccc(-c6cnc7ccc(N8CCC[C@@H]8c8cccc(F)c8)nn67)n5)C4)ccc3C2=O)C(=O)N1` (stereo partly drawn) [TR-219, 3-(5-((1-(6-(6-((R)-2-(3-Fluorophenyl)pyrrolidin-1-yl)imidazo[1,2-b]pyridazin-3-yl)pyridin-2-yl)azetidin-3-yl)ethynyl)-1-oxoisoindolin-2-yl)piperidine-2,6-dione], the percent degradation of TPM3-TRKA protein at 0.01 µM under setting [1] was in the range of 50 to 80%.
Turning to `Cn1c(=O)n(C2CCC(=O)NC2=O)c2ccc(NCCN3CCN(c4cccc(-c5cnc6ccc(N7CCC[C@@H]7c7cccc(F)c7)nn56)n4)CC3)cc21` (stereo partly drawn) [TR-220, 3-(5-((2-(4-(6-(6-((R)-2-(3-Fluorophenyl)pyrrolidin-1-yl)imidazo[1,2-b]pyridazin-3-yl)pyridin-2-yl)piperazin-1-yl)ethyl)amino)-3-methyl-2-oxo-2,3-dihydro-1H-benzo[d]imidazol-1-yl)piperidine-2,6-dione], the percent degradation of TPM3-TRKA protein at 0.01 µM under setting [1] was greater than 80%.
On the same count and under the same terms, to `O=C1CCC(N2C[C@H](c3cccc(C#CCN4CCN(c5cccc(-c6cnc7ccc(N8CCC[C@@H]8c8cccc(F)c8)nn67)n5)CC4)c3)OC2=O)C(=O)N1` (stereo partly drawn) [TR-223, 3-((S)-5-(3-(3-(4-(6-(6-((R)-2-(3-fluorophenyl)pyrrolidin-1-yl)imidazo[1,2-b]pyridazin-3-yl)pyridin-2-yl)piperazin-1-yl)prop-1-yn-1-yl)phenyl)-2-oxooxazolidin-3-yl)piperidine-2,6-dione] belongs 50 to 80%; to `O=C1CCC(N2C(=O)c3ccc(N4CCC(CN5CCN(c6cccc(-c7cnc8ccc(N9CCC[C@@H]9c9cccc(F)c9)nn78)n6)CC5)CC4)cc3C2=O)C(=O)N1` (stereo partly drawn) [TR-226, 2-(2,6-dioxopiperidin-3-yl)-5-(4-((4-(6-(6-((R)-2-(3-fluorophenyl)pyrrolidin-1-yl)imidazo[1,2-b]pyridazin-3-yl)pyridin-2-yl)piperazin-1-yl)methyl)piperidin-1-yl)isoindoline-1,3-dione], greater than 80%.
Take `O=C1CCC(N2C[C@H](c3ccc(CN4CCN(c5cccc(-c6cnc7ccc(N8CCC[C@@H]8c8cccc(F)c8)nn67)n5)CC4)cc3)OC2=O)C(=O)N1` (stereo partly drawn) [TR-229, 3-((S)-5-(4-((4-(6-(6-((R)-2-(3-fluorophenyl)pyrrolidin-1-yl)imidazo[1,2-b]pyridazin-3-yl)pyridin-2-yl)piperazin-1-yl)methyl)phenyl)-2-oxooxazolidin-3-yl)piperidine-2,6-dione]: under setting [1], the percent degradation of TPM3-TRKA protein at 0.01 µM is 50 to 80%.
With `O=C1CCC(N2C(=O)c3ccc(NCCN4CCN(c5ccc(C(=O)Nc6n[nH]c7ccc(Cc8cc(F)cc(F)c8)cc67)c(NC6CCOCC6)c5)CC4)cc3C2=O)C(=O)N1` (stereo not shown) [TR-232, N-(5-(3,5-difluorobenzyl)-1H-indazol-3-yl)-4-(4-(2-((2-(2,6-dioxopiperidin-3-yl)-1,3-dioxoisoindolin-5-yl)amino)ethyl)piperazin-1-yl)-2-((tetrahydro-2H-pyran-4-yl)amino)benzamide], the percent degradation of TPM3-TRKA protein at 0.01 µM under setting [1] is greater than 80%.
Turning to `O=C1CCC(N2C[C@H](c3cccc(CN4CCN(c5cccc(-c6cnc7ccc(N8CCC[C@@H]8c8cccc(F)c8)nn67)n5)CC4)c3)OC2=O)C(=O)N1` (stereo partly drawn) [TR-235, 3—((S)-5-(3-((4-(6-(6-((R)-2-(3-Fluorophenyl)pyrrolidin-1-yl)imidazo[1,2-b]pyridazin-3-yl)pyridin-2-yl)piperazin-1-yl)methyl)phenyl)-2-oxooxazolidin-3-yl)piperidine-2,6-dione], under setting [1], the percent degradation of TPM3-TRKA protein at 0.01 µM is 50 to 80%.
Consider `Cn1c(=O)n(C2CCC(=O)NC2=O)c2cccc(OCCCN3CCN(c4cccc(-c5cnc6ccc(N7CCC[C@@H]7c7cccc(F)c7)nn56)n4)CC3)c21` (stereo partly shown) [TR-245], for which the percent degradation of TPM3-TRKA protein at 0.01 µM (KM12, 16 h) was less than 50%.

The values above are taken from patent publication US12410171B2, “Tropomyosin receptor kinase (TRK) degradation compounds and methods of use” (Cullgen (Shanghai), Inc., priority 2020, dated 2025).
